One substance from patent publication US6544502B2, “Skin treatment with a water soluble antibiotic dissolved in an electrolyzed water” (Wasatch Pharmaceutical Inc., priority 1992, dated 2003) can be followed below.

Data set [1] is described as follows: Stability of antibiotic in aqueous solution. Format: physicochemical. The note with it: hydrate salt in water.
Data set [2] in a line: Solubility of antibiotic (water, lipoid). Format: physicochemical.

As to Doxycycline hyclate, the “stability of water soluble salt” value in data set [1] is “no pH sensitivity or breakdown into the inactive ingredients”. For the same substance, in data set [2], the lipoid solubility result is given as “high degree of lipoid solubility” and the solubility in water entry was “readily soluble in water”.
